Values belong to the compound of their own block, whether it stands above or below them.
Key:
[1] = system: human lung carcinoma A549 cells; assay: MTT based cell proliferation assay, A549; details: for IC50: A549, 72 h, read-out: Cell proliferation inhibition in A549 (Lung carcinoma), IC50
Experimental: (§1) MTT [3-(4,5-dimethylthiazol-2-yl)-2,5-diphenyltetrazolium bromide incorporation based cell proliferation assay was performed using standard procedure. […] The assay was carried out according to the instructions provided by the vendor. […] Vehicle control culture wells received only a maximum of 0.5% DMSO. Thereafter, 0.5 mg/ml of MTT reagent was added to each well and the microplate was incubated further for 4 h at 37° C. in presence of 5% CO2. Finally, the cells were solubilized by adding solubilizing solution and allowed to incubate at 37° C. overnight. After complete solubilization of the formazan crystals the absorbance was read at 540 nm in a microplate reader (BioRad, USA).
(§2) The evaluation of cell proliferation inhibitory activities of the compounds was done in two phases—(1) Screening, and (2) half-maximal inhibitory concentration (IC50) determination. In the screening phase, the cells were treated with different concentrations.

[2] = system: human prostate DU145 cells; assay: MTT based cell proliferation assay, DU145; details: for IC50: DU-145, 72 h, read-out: Cell proliferation inhibition in DU145 (Prostate carcinoma), IC50
Experimental: as §1, §2

[3] = system: human colorectal carcinoma HT29 cells; assay: MTT based cell proliferation assay, HT29; details: for IC50: HT-29, 72 h, read-out: Cell proliferation inhibition in HT29 (Colon carcinoma), IC50
Experimental: as §1, §2

[4] = system: human breast carcinoma (estrogen receptor negative) MDA-MB-231 cells; assay: MTT based cell proliferation assay, MDA-MB-231
Experimental: as §1, §2

[5] = system: human Hepatocellular carcinoma HepG2 cells; assay: MTT based cell proliferation assay, HepG2
Experimental: as §1, §2

[6] = system: human cervical carcinoma HeLa cells; assay: MTT based cell proliferation assay, HeLa
Experimental: as §1, §2

[7] = Homo sapiens, A549, read-out: Cell proliferation inhibition in A549 (Lung carcinoma)
[8] = Homo sapiens, DU-145, read-out: Cell proliferation inhibition in DU145 (Prostate carcinoma)
[9] = Homo sapiens, HT-29, read-out: Cell proliferation inhibition in HT29 (Colon carcinoma)

SMILES: CS(=O)(=O)N1CCc2c([se]c3ncnc(Nc4ccc(F)c(Cl)c4)c23)C1 [Compound 19, 4[(3-chloro-4-fluorophenyl)amino]-7-(methylsulfonyl)-5,6,7,8-tetrahydro-pyrimidino[5′,4′-5,4]selenopheno[2,3-c]pyridine]
inhibition at 25 µM [1, 7]: 27.4% | inhibition at 25 µM [2, 8]: 29.2% | inhibition at 25 µM [3, 9]: 3.07%

SMILES: Fc1ccc(Nc2ncnc3c2[se]c2ncccc23)cc1Cl [Compound 31, (3-chloro-4-fluorophenyl)pyrimidino[4′,5′-5,4]selenopheno[2,3-b]pyridin-4-ylamine]
inhibition at 25 µM [1, 7]: 30.2% | inhibition at 25 µM [2, 8]: 22% | inhibition at 25 µM [3, 9]: 5.21%

IC50 ([1]; Homo sapiens): 42.3 µM | IC50 ([2]; Homo sapiens): 37.1 µM | IC50 ([3]; Homo sapiens): 162 µM
SMILES: Clc1cc(Nc2ncnc3[se]c4c(c23)CCCC4)nc(Cl)n1 [Compound 4, (2,6-dichloropyrimidin-4-yl)-5,6,7,8-tetrahydrobenzo[1,2-b]pyrimidino[5,6-d]selenophen-4-ylamine]

IC50 ([1]; Homo sapiens): 33.5 µM | IC50 ([2]; Homo sapiens): 11.4 µM | IC50 ([3]; Homo sapiens): 117 µM
SMILES: Fc1ccc(Nc2ncnc3c4c([se]c23)CCCC4)cc1Cl [Compound 27, (3-chloro-4-fluorophenyl)-6,7,8,9-tetrahydrobenzo[1,2-d]pyrimidino[5,6-b]selenophen-4-ylamine]

IC50 ([1]; Homo sapiens): 15 µM | IC50 ([2]; Homo sapiens): 41.6 µM | IC50 ([3]; Homo sapiens): 37.9 µM
SMILES: CC(C)(C)c1c[se]c2ncnc(Nc3ccc(F)c(Cl)c3)c12 [Compound 13, [5-(tert-butyl)selenopheno[3,2-e]pyrimidin-4-yl](3-chloro-4-fluorophenyl)amine]

IC50 ([3]; Homo sapiens): 9.3 µM
SMILES: CC(C)(C)c1cc(Nc2ncnc3[se]c4c(c23)CCCC4)c(C(N)=O)s1 [Compound 7, (5-tert-butyl)-3-(5,6,7,8-tetrahydrobenzo[1,2-b]pyrimidino[5,6-d]selenophen-4-ylamino)thiophene-2-carboxamide]

SMILES: NS(=O)(=O)c1ccc(Nc2ncnc3[se]c4c(c23)CCCC4)cc1 [Compound 12, 4-(5,6,7,8-tetrahydrobenzo[1,2-b]pyrimidino[5,6-d]selenophen-4-ylamino)benzenesulfonamide]
inhibition at 24.449 µM [3, 9]: 15.6%

IC50 ([1]; Homo sapiens): 49 µM | IC50 ([2]; Homo sapiens): 42.4 µM
SMILES: Brc1cc(Nc2ncnc3[se]c4c(c23)CCCC4)c(Br)s1 [Compound 6]
inhibition at 18.868 µM [3, 9]: 15.5%

IC50 ([1]; Homo sapiens): 28.4 µM | IC50 ([2]; Homo sapiens): 29.5 µM | IC50 ([3]; Homo sapiens): 13.1 µM | IC50 ([4]; Homo sapiens, MDA-MB-231, 72 h, read-out: Cell proliferation inhibition (IC50) in MDA-MB-231 (Breast Carcinoma)): 20.4 µM | IC50 ([5]; Homo sapiens, HepG2, 72 h, read-out: Cell proliferation inhibition (IC50) in HepG2 (Hepatocellular Carcinoma)): 10.4 µM | IC50 ([6]; Homo sapiens, 72 h, read-out: Cell proliferation inhibition (IC50) in HeLa (Cervical Carcinoma)): 23.1 µM
SMILES: CN(c1ccc(Cl)cc1)c1ncnc2[se]c3c(c12)CCNC3 [Compound 33]
more potent than Gefitinib (Iressa) in inhibiting tumor cells proliferation ([1]; A549, from IC50 values): 101% | more potent than Gefitinib (Iressa) in inhibiting tumor cells proliferation ([2]; DU145, from IC50 values): 6.8% | more potent than Gefitinib (Iressa) in inhibiting tumor cells proliferation ([3]; HT29, from IC50 values): 257.8% | more potent than Gefitinib (Iressa) in inhibiting tumor cells proliferation ([4]; MDA-MB-231, from IC50 values): 122% | more potent than Gefitinib (Iressa) in inhibiting tumor cells proliferation ([5]; HepG2, from IC50 values): 241% | more potent than Gefitinib (Iressa) in inhibiting tumor cells proliferation ([6]; from IC50 values): 117%

IC50 ([1]; Homo sapiens): 109 µM | IC50 ([2]; Homo sapiens): 82.7 µM | IC50 ([3]; Homo sapiens): 71 µM
SMILES: CC(C)(C)c1cc2ncnc(Nc3ccc(F)c(Cl)c3)c2[se]1 [Compound 28, [6-(tert-butyl)selenopheno[2,3-e]pyrimidin-4-yl](3-chloro-4-fluorophenyl)amine]

SMILES: COC(=O)c1cc(Nc2ncnc3[se]c4c(c23)CCNC4)c(C)s1 [Compound 23, methyl 5-methyl-4-(5,6,7,8-tetrahydropyrimidino[5′,6′-5,4]selenopheno[2,3-c]pyridin-4-ylamino)thiophene-2-carboxylate]
inhibition at 22.472 µM [1, 7]: 8.64% | inhibition at 22.472 µM [2, 8]: 5.08% | inhibition at 22.472 µM [3, 9]: 15.4%

IC50 ([2]; Homo sapiens): 8.37 µM
SMILES: Fc1ccc(Nc2ncnc3[se]c4c(c23)CCCC4)cc1Cl [Compound 1, (3-chloro-4-fluorophenyl)-5,6,7,8-tetrahydrobenzo[1,2-b]pyrimidino[5,6-d]selenophen-4-ylamine]

SMILES: Clc1ccc(Nc2ncnc3[se]c4c(c23)CCNC4)cc1Cl [Compound 22, (3,4-dichlorophenyl)-5,6,7,8-tetrahydropyrimidino[5′,6′-5,4]selenopheno[2,3-c]pyridin-4-ylamine]
inhibition at 22.935 µM [1, 7]: 16.7% | inhibition at 22.935 µM [2, 8]: 36.6% | inhibition at 22.935 µM [3, 9]: 28.4%

SMILES: Cc1c(C(N)=O)[se]c2ncnc(Nc3ccc(F)c(Cl)c3)c12 [Compound 17, 4-[(3-chloro-4-fluorophenyl)amino]-5-methylselenopheno[2,3-d]pyrimidine-6-carboxamide]
inhibition at 25 µM [1, 7]: 21.4% | inhibition at 25 µM [2, 8]: 44.4%

Source: US9090633B2, “Substituted 4-(arylamino) selenophenopyrimidine compounds and methods of use thereof” (KASINA LAILA INNOVA PHARMACEUTICALS PRIVATE LIMITED, priority 2010, dated 2013)
